Measured values published in PubChem BioAssay (NCI).
Where “and” joins values, the source holds several entries; their conditions need not be identical. Equal values may be shown once.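 The compound was tested at five concentrations on cells cultured in 96-well plates, with a 48-hour exposure period. GI50: concentration for 50% inhibition of growth. The concentration for full growth arrest is given as TGI.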

Columns and labels:
Experiment in all cases: NCI anticancer screen, dose series, 48 h
MALME-3M melanoma = test system: MALME-3M melanoma
SK-MEL-5 melanoma = test system: SK-MEL-5 melanoma
ACHN renal = test system: ACHN renal
SW-620 colon = test system: SW-620 colon
SF-539 CNS = test system: SF-539 CNS
UO-31 renal = test system: UO-31 renal
SR leukemia = test system: SR leukemia
SK-OV-3 ovarian = test system: SK-OV-3 ovarian
NCI-H226 lung = test system: NCI-H226 lung
UACC-257 melanoma = test system: UACC-257 melanoma

| Compound | TGI (MALME-3M melanoma) [µM] | TGI (SK-MEL-5 melanoma) [µM] | TGI (ACHN renal) [µM] | GI50 (SW-620 colon) [µM] | TGI (SW-620 colon) [µM] | GI50 (SF-539 CNS) [µM] | TGI (SF-539 CNS) [µM] | GI50 (UO-31 renal) [µM] | TGI (UO-31 renal) | GI50 (SR leukemia) [µM] | TGI (SR leukemia) [µM] | TGI (SK-OV-3 ovarian) [µM] | GI50 (NCI-H226 lung) [µM] | TGI (NCI-H226 lung) [µM] | GI50 (UACC-257 melanoma) [µM] | TGI (UACC-257 melanoma) [µM] | GI50 (MALME-3M melanoma) [µM] | GI50 (SK-MEL-5 melanoma) [µM] | GI50 (ACHN renal) [µM] | GI50 (SK-OV-3 ovarian) [µM] |
| --- | --- | --- | --- | --- | --- | --- | --- | --- | --- | --- | --- | --- | --- | --- | --- | --- | --- | --- | --- | --- |
| Nc1ccc(S(=O)(=O)Nc2cnc3c(Cl)cccc3n2)cc1 | > 750 | > 627 | > 750 | 52.3 | > 678 | > 94.6 | 513 | > 55.8 | > 56.2 µM and 742 µM | 23.1 | > 750 | 163 | > 75.6 | > 750 | > 89.3 | > 750 | – | – | – | – |
| O=C(c1ccc(Cl)cc1)C1OC12C(=O)Nc1ccccc12 (stereo not given) | 18.8 | 24.6 | 28.5 | – | 17.4 | – | 30.6 | – | 29.4 µM | – | 3.22 | 60.4 | – | 40.7 | – | 27.8 | – | – | – | – |
| CC1CC[C@]2(C(=O)O)CCC3(C)C(=CCC4[C@@]5(C)CC[C@H](OS(=O)(=O)c6ccccc6)C(C)(C)C5CC[C@]43C)[C@@H]2[C@H]1C (stereo not given in full) | > 100 | > 100 | > 100 | – | > 100 | – | > 100 | – | > 100 µM | – | > 100 | > 100 | – | > 100 | – | > 100 | – | – | – | – |
| CC1CCC2N(C1)CC1C3(O)CC45OC6(O)C(O)CCC4(C)C6CCC5C3(O)CC(O)C1(O)C2(C)O (stereo not given) | > 100 | > 100 | > 100 | – | > 100 | – | > 100 | – | > 100 µM | – | > 100 | > 100 | – | > 100 | – | > 100 | – | – | – | – |
| Cc1c(C(=O)CSc2nc3ccccc3[nH]2)c(=O)n(-c2ccccc2)n1C | > 100 | > 100 | > 100 | – | > 100 | – | > 100 | – | > 100 µM | – | > 100 | > 100 | – | > 100 | – | > 100 | – | – | – | – |
| CN(C=O)/C=C/c1cc(O)ccc1O | > 63.3 | > 66.9 | 29.7 | – | 37.9 | – | > 65.4 | – | 47 µM | – | 51.1 | > 100 | – | > 78.7 | – | 52.7 | – | – | – | – |
| COc1cccc(/C=C/C(=O)c2cc3c(N)c(C(=O)Nc4cccc5ccccc45)sc3nc2C)c1 | > 50 | 3.09 | 4.36 | 0.538 | 3.1 | 1.17 | 2.8 | 0.889 | 2.08 µM | 0.296 | > 50 | > 50 | 1.2 | 3.27 | 1.48 | 10.6 | 1.96 | 1.21 | 1.23 | 2.24 |
| COc1ccc(CCc2cc(OC)c(OC)c(OC)c2)cc1 | 39.1 | 12 | 76.9 | – | > 100 | – | 0.146 | – | 83.2 µM | – | 0.78 | > 32.2 | – | 7.46 | – | 47.7 | – | – | – | – |
| O=S(=O)(c1ccc(O)c(C=Nc2ccc(Cl)cc2)c1)c1ccc(O)c(C=Nc2ccc(Cl)cc2)c1 | > 100 | > 100 | > 100 | – | > 100 | – | > 100 | – | > 100 µM | – | > 100 | > 100 | – | > 100 | – | > 100 | – | – | – | – |
| CCN(CC)CCN(C(=O)C(C)(C)C)c1ccccc1N | > 100 | > 100 | > 100 | – | > 100 | – | > 100 | – | > 100 µM | – | > 100 | > 100 | – | > 100 | – | > 100 | – | – | – | – |
| COc1nc(NC2OC(COC(C)=O)C(OC(C)=O)C(OC(C)=O)C2OC(C)=O)c(-c2csc(N)n2)c(=O)n1C (stereo not given) | 78.8 | > 100 | > 100 | – | > 100 | – | > 100 | – | > 100 µM | – | > 100 | > 100 | – | > 100 | – | > 100 | – | – | – | – |
| O=C(Nc1ccccc1C(=O)N/N=C(\c1ccccc1)c1ccccn1)c1ccc(F)cc1 | > 100 | 3.5 | – | 0.448 | > 100 | 0.298 | – | 0.0828 | 7.25 µM | 0.142 | > 100 | > 20.9 | 0.366 | – | 0.793 | > 100 | 0.767 | 0.22 | 0.127 | 0.354 |
| O=C1CN(/N=C/c2ccc(-c3ccc(F)cc3)o2)C(=O)N1 | > 100 | > 100 | > 100 | – | > 100 | – | > 100 | – | > 100 µM | – | 75.7 | > 100 | – | 88.5 | – | > 100 | – | – | – | – |
| C[C@@H]1C[C@]2(C[C@@H](C)C3[C@@H](CC4(C)[C@@H]5CCC6C(C)(C)OC(=O)C=C[C@]67C[C@@]5(CC[C@]34C)OO7)O2)OC1=O (stereo not given in full) | > 100 | > 100 | > 100 | – | > 100 | – | > 100 | – | > 100 µM | – | > 100 | > 100 | – | > 100 | – | > 100 | – | – | – | – |
| COc1ccc(C(O)CC(O)(C(F)(F)F)C(F)(F)F)cc1 (stereo not given) | 49.1 | 36.2 | > 100 | – | > 100 | – | 55.3 | – | > 100 µM | – | 56.3 | > 100 | – | > 100 | – | 51.8 | – | – | – | – |
| C/C(CC(=O)N(C(C)C)C(C)C)=N\NC(=O)c1ccncc1 | > 100 | > 100 | > 100 | – | > 100 | – | > 100 | – | > 100 µM | – | > 100 | > 100 | – | > 100 | – | > 100 | – | – | – | – |
| O=c1[nH]c2ccccc2n1-c1n[nH]c2ccccc12 | 82.9 | 35.9 | > 100 | 39.4 | > 100 | 56.9 | > 100 | 12.5 | > 100 µM | 18.1 | 73.1 | > 100 | 18.9 | 55.4 | 42.1 | > 100 | 26.3 | 16.9 | 29.9 | 73 |
| CC/C=C\C/C=C\C[C@H](O)C/C=C1/C(=O)C=C[C@@H]1C/C=C\CCCC(=O)OC | 4.88 | 2.93 | 3.4 | 0.834 | 10.3 | 2.53 | 6.09 | 1.55 | 3.03 µM | 0.281 | 1.87 | 15 | 1.92 | 3.79 | 1.83 | 4.32 | 1.92 | 1.54 | 1.72 | 5.27 |
| CC1COCC(C)N1C1=C(Cl)C(=O)c2ccccc2C1=O (stereo not given) | 2.97 | 19.9 | 3.06 | 1.74 | 3.24 | 14.3 | 28.1 | 1.39 | 2.73 µM | 2.28 | 5.97 | 31.8 | 15.1 | 31.2 | 1.6 | 3.08 | 1.5 | 6.83 | 1.66 | 17.9 |
| O=c1cc(-c2ccccn2)[nH]c2ccc(Cl)cc12 | 62.5 | > 100 | > 100 | – | > 100 | – | > 100 | – | > 100 µM | – | > 100 | > 100 | 46.5 | > 100 | – | > 100 | – | 26.6 | – | – |
| COc1cnc2cc(C(=O)O)c3ccccc3c2c1 | > 100 | > 100 | > 100 | – | > 100 | – | > 100 | – | > 100 µM | – | > 100 | > 100 | – | > 100 | – | > 100 | – | – | – | – |
| COc1cc(/C=C(\C#N)C(N)=C(C#N)C#N)cc(O)c1O | > 100 | > 100 | > 100 | – | > 100 | – | > 100 | – | > 100 µM | – | > 100 | > 100 | – | > 100 | – | > 100 | – | – | – | – |
| C#CCN(Cc1ccc2nc(N)[nH]c(=O)c2c1)c1ccc(C(=O)NC(CCC(=O)O)C(=O)O)cc1 (stereo not given) | > 100 | > 100 | > 100 | – | > 100 | – | > 100 | – | > 100 µM | – | > 100 | > 100 | – | > 100 | – | > 100 | – | – | – | – |
| CC1(C)OC2C(COS(N)(=O)=O)SC(n3cnc4cncnc43)C2O1 (stereo not given) | > 100 | > 100 | > 100 | > 100 | > 100 | > 100 | > 100 | > 100 | > 100 µM | > 100 | > 100 | > 100 | > 100 | > 100 | > 100 | > 100 | > 100 | > 100 | > 100 | > 100 |
| Oc1[nH]c2cc(Cl)ccc2c1/C=c1/ccc2c(c1)N=C(c1cc(F)cc(F)c1)N=2 | 27.4 | 7.59 | 19.9 | 1.1 | 9.32 | 2.04 | 5.96 | 3.68 | 19 µM | 2.22 | 8.53 | 7.95 | 5.78 | 31 | 0.927 | 19.2 | 6.06 | 1.68 | 4.99 | 2.38 |
| Oc1ccc(Cl)cc1Cc1cc(Cl)ccc1O | 6.35 | 3.46 | 11.3 | 3.04 | 12.4 | 3.8 | 13.8 | 2.06 | 6.48 µM | 4.45 | 35.8 | 10.9 | 3.28 | 14.4 | 1.87 | 5.39 | 2.55 | 1.62 | 3.33 | 2.81 |
